Patent publication US10081662B2, “Modified relaxin B chain peptides” (The Florey Institute of Neuroscience and Mental Health, priority 2014, dated 2018)
Read-outs that look alike come from different tables or passages of the source. Peptide text beside a SMILES is read from it.

Key:
RXFP1 [1] = target: T1, RXFP1 (Homo sapiens, UniProt Q9HBX9); assay: Eu-labelled H2 relaxin competition binding, whole HEK-293T cells stably transfected with RXFP1
T1 construct: expressed in transfected cells; host or cells: HEK-293T
T1 sequence (Q9HBX9 1-757): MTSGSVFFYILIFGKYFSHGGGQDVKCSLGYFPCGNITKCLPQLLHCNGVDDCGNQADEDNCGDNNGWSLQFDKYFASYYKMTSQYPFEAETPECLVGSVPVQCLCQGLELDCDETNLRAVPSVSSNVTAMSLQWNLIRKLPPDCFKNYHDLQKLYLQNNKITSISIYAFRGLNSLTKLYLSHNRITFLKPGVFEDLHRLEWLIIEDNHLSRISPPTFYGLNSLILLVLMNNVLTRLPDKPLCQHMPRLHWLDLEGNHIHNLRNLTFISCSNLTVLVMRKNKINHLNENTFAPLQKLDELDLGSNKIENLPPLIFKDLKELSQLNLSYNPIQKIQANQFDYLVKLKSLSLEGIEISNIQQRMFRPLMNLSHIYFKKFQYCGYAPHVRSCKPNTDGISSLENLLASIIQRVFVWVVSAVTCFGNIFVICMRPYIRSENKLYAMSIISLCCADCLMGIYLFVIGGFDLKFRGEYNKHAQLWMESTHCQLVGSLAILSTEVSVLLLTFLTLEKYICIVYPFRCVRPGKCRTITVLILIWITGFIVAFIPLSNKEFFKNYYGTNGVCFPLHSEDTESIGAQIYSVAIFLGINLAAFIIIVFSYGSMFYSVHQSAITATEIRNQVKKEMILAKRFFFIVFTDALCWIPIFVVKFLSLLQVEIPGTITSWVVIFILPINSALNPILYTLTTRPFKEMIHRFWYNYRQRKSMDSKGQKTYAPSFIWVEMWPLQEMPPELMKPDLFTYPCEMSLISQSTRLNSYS
Procedure: Human embryonic kidney (HEK-293T) cells stably transfected with RXFP1 were cultured in RPMI 1640 medium supplemented with 10% fetal calf serum, 100 μg/ml penicillin, 100 μg/ml streptomycin and 2 mM L-glutamine and plated into 96-well pre-coated with poly-L-lysine for whole cell binding assays. Competition binding experiments were conducted with Eu^3+-labelled H2 relaxin (as per Shabanpoor et al., 2012, Biochem Biophys Res Commun. 420, 253-256) in the absence or presence of increasing concentrations of unlabelled relaxin-2 B chain derivatives. Nonspecific binding was determined with an excess of unlabelled peptides (500 nM H2 relaxin). Fluorescent measurements were recorded at an excitation wavelength of 340 nm and emission of 614 nm on a Victor plate reader (Perkin-Elmer Inc.). […] Statistical differences in pIC50 values were analyzed using one-way analysis of variance coupled to Newman Keul's multiple comparison test for multiple group comparisons in GraphPad Prism 6.

[2] = target: T2, fusion protein comprising the extracellular domain of RXFP1 and the transmembrane domain of CD8 (7BP cells) (Homo sapiens, UniProt Q9HBX9); assay: Eu-labelled H2 relaxin competition binding to 7BP cells
T2 construct: the extracellular domain of RXFP1 and the transmembrane domain of CD8; expressed in transfected cells
T2 sequence (Q9HBX9 1-409 limits assumed): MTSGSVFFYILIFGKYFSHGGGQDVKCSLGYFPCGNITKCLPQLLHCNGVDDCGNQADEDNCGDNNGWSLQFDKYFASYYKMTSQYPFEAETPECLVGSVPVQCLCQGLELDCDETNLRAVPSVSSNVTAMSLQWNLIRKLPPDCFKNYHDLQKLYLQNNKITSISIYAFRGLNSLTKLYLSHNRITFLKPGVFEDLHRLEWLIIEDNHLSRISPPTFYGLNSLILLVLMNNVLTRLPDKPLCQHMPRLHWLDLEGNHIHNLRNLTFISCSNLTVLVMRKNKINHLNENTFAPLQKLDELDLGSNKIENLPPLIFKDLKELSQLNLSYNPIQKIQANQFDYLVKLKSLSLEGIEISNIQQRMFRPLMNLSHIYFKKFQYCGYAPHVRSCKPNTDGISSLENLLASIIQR

RXFP1 [3] = target: T1, RXFP1; assay: cAMP reporter gene assay (pCRE β-galactosidase) in HEK-293T cells transfected with RXFP1; type: cell-based
Procedure: The ability of the relaxin-2 B chain peptide derivatives generated in Example 1 to stimulate cAMP response was also evaluated, using a cAMP reporter gene assay as described previously (Scott et al., 2006, J Biol Chem. 281, 34942-34954). HEK-293T cells co-transfected with either RXFP1 or RXFP2, or 7BP cells, and a pCRE β-galactosidase reporter plasmid were plated in 96-well plates. After 24 hours, the co-transfected cells were incubated with increasing concentrations of peptides in parallel to 10 nM of H2 relaxin or INSL3 for RXFP1- or RXFP2-transfected cells respectively. The amount of cAMP-driven β-galactosidase expression in each well was assessed with a colorimetric assay measuring absorbance at 570 nm on a microplate spectrophotometer. Ligand-induced cAMP stimulation was expressed as a percentage of maximal response of H2 relaxin or INSL3 for RXFP1 and RXFP2 cells respectively. Each data point was measured in triplicate and each experiment conducted independently at least three separate times. Statistical differences in pEC50 values were analyzed using one-way ANOVA coupled to Newman Keul's multiple comparison test for multiple group comparisons in GraphPad Prism 6.

[4] = Solubility of relaxin B chain peptides in aqueous solution
[5] = HEK-293T cells stably transfected with RXFP1, competition with Eu-labelled H2 relaxin, mean ± S.E, n ≥ 3, read-out: RXFP1 Eu-H2 pKi (converted)
[6] = 7BP cells, competition with Eu-labelled H2 relaxin, n ≥ 3, read-out: 7BP Eu-H2 pKi (converted)
[7] = HEK-293T cells co-transfected with RXFP1 and pCRE β-galactosidase reporter, n ≥ 3, read-out: RXFP1 cAMP pEC50 (converted)

Which Ki (RXFP1 [1]; [5]) does the source give for `CC[C@H](C)[C@H](NC(=O)[C@H](C)NC(=O)[C@@H](NC(=O)[C@H](CCC(N)=O)NC(=O)[C@H](C)NC(=O)[C@H](CCCNC(=N)N)NC(=O)[C@@H](NC(=O)[C@H](CC(C)C)NC(=O)[C@H](CCC(=O)O)NC(=O)[C@H](CCCNC(=N)N)NC(=O)CNC(=O)[C@H](CO)NC(=O)[C@H](CC(C)C)NC(=O)[C@H](CCCCN)NC(=O)[C@@H](NC(=O)[C@@H](NC(C)=O)C(C)C)[C@@H](C)CC)C(C)C)[C@@H](C)CC)C(=O)N[C@@H](CO)C(=O)NCC(=O)N[C@@H](CCSC)C(=O)N[C@@H](CO)C(=O)N[C@H](C(=O)N[C@@H](Cc1c[nH]c2ccccc12)C(=O)N[C@@H](CO)C(=O)N[C@@H](CCCCN)C(=O)N[C@@H](CCCNC(=N)N)C(=O)N[C@@H](CO)C(=O)N[C@@H](CC(C)C)C(N)=O)[C@@H](C)O` [AcB7-33 C11.23S] (Ac-VIKLSGRELVRAQIAISGMSTWSKRSL-NH2) here?
The Ki was 1000 nM.

And the Ki [2, 6]?
The Ki was 28.8 nM.

What about the EC50 (RXFP1 [3]; [7]) of the same compound?
Its EC50 is 3980 nM.

With `CC[C@H](C)[C@H](NC(=O)[C@H](C)NC(=O)[C@@H](NC(=O)[C@H](CCC(N)=O)NC(=O)[C@H](C)NC(=O)[C@H](CCCNC(=N)N)NC(=O)[C@@H](NC(=O)[C@H](CC(C)C)NC(=O)[C@H](CCC(=O)O)NC(=O)[C@H](CCCNC(=N)N)NC(=O)CNC(=O)[C@H](CS)NC(=O)[C@H](CC(C)C)NC(=O)[C@H](CCCCN)NC(=O)[C@@H](NC(=O)[C@@H](NC(=O)[C@H](CCC(=O)O)NC(=O)[C@H](CCC(=O)O)NC(=O)[C@H](CCSC)NC(=O)[C@H](Cc1c[nH]c2ccccc12)NC(=O)[C@H](CO)NC(=O)[C@@H](N)CC(=O)O)C(C)C)[C@@H](C)CC)C(C)C)[C@@H](C)CC)C(=O)N[C@@H](CS)C(=O)NCC(=O)N[C@@H](CCSC)C(=O)N[C@@H](CO)C(=O)N[C@H](C(=O)N[C@@H](Cc1c[nH]c2ccccc12)C(=O)N[C@@H](CO)C(N)=O)[C@@H](C)O` [H2 B chain] as the compound, how does the “Solubility at concentration 4 mg/ml” value ([4]; 4 mg/ml, FIG. 1) read?
Its value is “insoluble”.

And the “Aqueous solubility (in words)” value ([4]; aqueous solution)?
Its value is “insoluble in aqueous solution”.

Which Ki (RXFP1 [1]; [5]) does the source give for `CC[C@H](C)[C@H](NC(=O)[C@H](C)NC(=O)[C@@H](NC(=O)[C@H](CCC(N)=O)NC(=O)[C@H](C)NC(=O)[C@H](CCCNC(=N)N)NC(=O)[C@@H](NC(=O)[C@H](CC(C)C)NC(=O)[C@H](CCC(=O)O)NC(=O)[C@H](CCCNC(=N)N)NC(=O)CNC(=O)[C@H](CO)NC(=O)[C@H](CC(C)C)NC(=O)[C@H](CCCCN)NC(=O)[C@@H](NC(=O)[C@@H](NC(C)=O)C(C)C)[C@@H](C)CC)C(C)C)[C@@H](C)CC)C(=O)N[C@@H](CO)C(=O)NCC(=O)N[C@@H](CCSC)C(=O)N[C@@H](CO)C(=O)N[C@H](C(=O)N[C@@H](Cc1c[nH]c2ccccc12)C(=O)N[C@@H](CO)C(=O)N[C@@H](CCCCN)C(=O)N[C@@H](CCCCN)C(=O)N[C@@H](CCCCN)C(=O)N[C@@H](CCCCN)C(N)=O)[C@@H](C)O` [KKKK (AcB7-29 C11.23S)] (Ac-VIKLSGRELVRAQIAISGMSTWSKKKK-NH2) here?
Its Ki is 562 nM.

What about the Ki [2, 6] of the same compound?
The Ki was 1.23 nM.

What about the EC50 (RXFP1 [3]; [7]) of the same compound?
Its EC50 is 1550 nM.

Which results are given for `CC[C@H](C)[C@H](NC(=O)[C@H](C)NC(=O)[C@H](C)NC(=O)[C@H](CCC(N)=O)NC(=O)[C@H](C)NC(=O)[C@H](C)NC(=O)[C@@H](NC(=O)[C@H](CC(C)C)NC(=O)[C@H](CCC(=O)O)NC(=O)[C@H](C)NC(=O)CNC(=O)[C@H](CO)NC(=O)[C@H](CC(C)C)NC(=O)[C@H](CCCCN)NC(=O)[C@@H](NC(=O)[C@@H](NC(C)=O)C(C)C)[C@@H](C)CC)C(C)C)C(=O)N[C@@H](CO)C(=O)NCC(=O)N[C@@H](CCSC)C(=O)N[C@@H](CO)C(=O)N[C@H](C(=O)N[C@@H](Cc1c[nH]c2ccccc12)C(=O)N[C@@H](CO)C(=O)N[C@@H](CCCCN)C(=O)N[C@@H](CCCNC(=N)N)C(=O)N[C@@H](CO)C(=O)N[C@@H](CC(C)C)C(N)=O)[C@@H](C)O` [R13/17A. I20A (AcB7-33 C11.23S)] (Ac-VIKLSGAELVAAQAAISGMSTWSKRSL-NH2)?
Ki (RXFP1 [1]): > 10000 nM; Ki [2]: 2880 nM; EC50 (RXFP1 [3]): > 10000 nM

For `CC[C@H](C)[C@H](NC(=O)[C@H](C)NC(=O)[C@@H](NC(=O)[C@H](CCC(N)=O)NC(=O)[C@H](C)NC(=O)[C@H](CCCNC(=N)N)NC(=O)[C@@H](NC(=O)[C@H](CC(C)C)NC(=O)[C@H](CCC(=O)O)NC(=O)[C@H](C)NC(=O)CNC(=O)[C@H](CO)NC(=O)[C@H](CC(C)C)NC(=O)[C@H](CCCCN)NC(=O)[C@@H](NC(=O)[C@@H](NC(C)=O)C(C)C)[C@@H](C)CC)C(C)C)[C@@H](C)CC)C(=O)N[C@@H](CO)C(=O)NCC(=O)N[C@@H](CCSC)C(=O)N[C@@H](CO)C(=O)N[C@H](C(=O)N[C@@H](Cc1c[nH]c2ccccc12)C(=O)N[C@@H](CO)C(=O)N[C@@H](CCCCN)C(=O)N[C@@H](CCCNC(=N)N)C(=O)N[C@@H](CO)C(=O)N[C@@H](CC(C)C)C(N)=O)[C@@H](C)O` [R13A (AcB7-33 C11.23S)] (Ac-VIKLSGAELVRAQIAISGMSTWSKRSL-NH2), which Ki (RXFP1 [1]; [5]) is on record?
Its Ki is over 10000 nM.

What about the Ki [2, 6] of the same compound?
Its Ki is 1740 nM.

And the EC50 (RXFP1 [3]; [7])?
Its EC50 is over 10000 nM.

For `CC[C@H](C)[C@H](NC(=O)[C@H](C)NC(=O)[C@@H](NC(=O)[C@H](CCC(N)=O)NC(=O)[C@H](C)NC(=O)[C@H](C)NC(=O)[C@@H](NC(=O)[C@H](CC(C)C)NC(=O)[C@H](CCC(=O)O)NC(=O)[C@H](CCCNC(=N)N)NC(=O)CNC(=O)[C@H](CO)NC(=O)[C@H](CC(C)C)NC(=O)[C@H](CCCCN)NC(=O)[C@@H](NC(=O)[C@@H](NC(C)=O)C(C)C)[C@@H](C)CC)C(C)C)[C@@H](C)CC)C(=O)N[C@@H](CO)C(=O)NCC(=O)N[C@@H](CCSC)C(=O)N[C@@H](CO)C(=O)N[C@H](C(=O)N[C@@H](Cc1c[nH]c2ccccc12)C(=O)N[C@@H](CO)C(=O)N[C@@H](CCCCN)C(=O)N[C@@H](CCCNC(=N)N)C(=O)N[C@@H](CO)C(=O)N[C@@H](CC(C)C)C(N)=O)[C@@H](C)O` [R17A (AcB7-33 C11.23S)] (Ac-VIKLSGRELVAAQIAISGMSTWSKRSL-NH2), which Ki (RXFP1 [1]; [5]) is on record?
Its Ki is over 10000 nM.

And the Ki [2, 6]?
The Ki was 977 nM.

And the EC50 (RXFP1 [3]; [7])?
The EC50 was over 10000 nM.
